Measurements: patent publication US20020013306A1, “TERPYRIDINE-PLATINUM(II) COMPLEXES” (priority 1996, published 2002)

Tests used:
[1] = Acid/base stability by NMR; details: diethylamine in deuterated chloroform; directly afterwards and after 20 hours
Procedure: Diethylamine (2 ml) was added to a solution of 4′-aziridinoterpyridine (5 mg) in deuterated chloroform in a NMR tube.
NMR spectra were recorded immediately and after 1, 2, 4 and 24 hours.

[2] = test system: SKOV3 human ovarian carcinoma cell line; experiment: 96 h growth inhibition, sulforhodamine B assay, SKOV3; assay type: cell-based; details: 96 h exposure, v = variable (mean)
[3] = test system: CH1 human ovarian carcinoma cell line; experiment: 96 h growth inhibition, sulforhodamine B assay, CH1; assay type: cell-based; details: 96 h exposure, v = variable (mean)
[4] = test system: T. brucei (S427) bloodstream trypomastigotes; experiment: Trypanosoma brucei bloodstream trypomastigote culture; assay type: cell-based
[5] = test system: CHl human ovarian carcinoma subcutaneously implanted xenograph; experiment: CH1 human ovarian carcinoma xenograft in vivo
Procedure: In view of the in vitro results, compound (A) was investigated in vivo using the CHl human ovarian carcinoma subcutaneously implanted xenograph. The compound was administered intraperitoneally at weekly intervals for 4 weeks. Two dose levels were used; 30 and 60 mg/kg. Tumours were approximately 6-8 mm maximum diameter at the beginning of treatment. […] Two endpoints were determined, the 28 day T/C (the ratio of Treated versus Control volumes at day 28 post initial treatment) and the growth delay (GD: the difference in time taken for Treated versus Control groups to double in volume).
At the lower dose there was a growth delay (GD) 83.1. […] It seems likely that by using a still lower and more frequent drug schedule (e.g. daily) greater control over tumour growth could be achieved.

[6] = test system: A2780cis^R human ovarian carcinoma cell line (cisplatin resistant); experiment: 96 h growth inhibition, sulforhodamine B assay, A2780cisR; assay type: cell-based; details: for IC50: 96 h exposure, growth inhibition, v = variable (mean)
[7] = test system: DNA; experiment: Fluorescence spectroscopy, ethidium bromide displacement; assay type: binding
Description: (§1) The double positive charge on 4-picoline-2,2′:6′,2″-terpyridine-platinum(II), together with the intercalative binding mode is probably responsible for the large binding constant.

[8] = test system: DNA; experiment: Ligation assay (DNA unwinding); assay type: binding
Description: as §1

[9] = Single intraperitoneal injection toxicity in tumour-bearing mice (ADJ/PC6); assay type: in vivo
Procedure: Compound (A) was also administered as a single intraperitoneal injection in water to mice bearing subcutaneously implanted tumours e.g. ADJ/PC6 (according to the standard protocol for evaluating platinum complexes).

[10] = test system: CH1dox^R human ovarian carcinoma cell line (doxorubicin resistant); experiment: 96 h growth inhibition, sulforhodamine B assay, CH1doxR; assay type: cell-based; details: for IC50: 96 h exposure, growth inhibition; for RF resistance factor: IC50 resistant line/IC50 parent line: CH1dox^R / CH1
[11] = test system: A2780 human ovarian carcinoma cell line; experiment: 96 h growth inhibition, sulforhodamine B assay, A2780; assay type: cell-based; details: 96 h exposure, v = variable (mean)
[12] = test system: T. cruzi (MHOM/BR/00/Y); experiment: Trypanosoma cruzi in mouse peritoneal macrophages; assay type: cell-based
Procedure: Trypanosoma cruzi: […] Drug activity was determined from the % of infected macrophages in treated cultures. Nifurtimox was used as the positive control.

[13] = test system: polyfd(A-T)2); experiment: Circular dichroism equilibrium binding
Description: as §1

[14] = test system: CH1cis^R human ovarian carcinoma cell line (cisplatin resistant); experiment: 96 h growth inhibition, sulforhodamine B assay, CH1cisR; assay type: cell-based; details: for IC50: 96 h exposure, growth inhibition, v = variable (mean); for RF resistance factor: IC50 resistant line/IC50 parent line: CH1cis^R / CH1
[15] = test system: calf-thymus (ct)-DNA; details: literature [1]-[3]; cited from earlier work
[16] = deuterated water; NMR immediately, 1, 2, 17 hours, one and two weeks
Procedure: A solution of (4-picoline) (4′-aziridinoterpyridine) platinum (II) tetrafluoroborate in deuterated water was prepared. NMR spectra were recorded immediately, after 1, 2 and 17 hours, then after one and two weeks.

Molecule | IC50 [2] [µM] | IC50 [3] [µM] | % Inhibition, Trypanosoma brucei ([4]; 0.1 μM) [%] | % Inhibition, Trypanosoma brucei ([4]; 0.3 μM) [%] | % Inhibition, Trypanosoma brucei ([4]; 1 μM) [%] | % Inhibition, Trypanosoma brucei ([4]; 3 μM) [%] | % Inhibition, Trypanosoma brucei ([4]; 10 μM) [%] | % Inhibition, Trypanosoma brucei ([4]; 30 μM) [%] | IC50 [6] [µM] | IC50 [10] [µM] | RF resistance factor: IC50 resistant line/IC50 parent line [10] | IC50 [11] [µM] | % Inhibition, Trypanosoma cruzi ([12]; 30 μM) [%] | IC50 [14] [µM] | RF resistance factor: IC50 resistant line/IC50 parent line [14] | binding association constant with ct-DNA [15] | % Inhibition, Trypanosoma cruzi ([12]; 1 μM) [%] | % Inhibition, Trypanosoma cruzi ([12]; 3 μM) [%] | % Inhibition, Trypanosoma cruzi ([12]; 10 μM) [%] | further results
c1ccc(-c2cc(N3CC3)cc(-c3ccccn3)n2)nc1 [4′-aziridinoterpyridine, 4′-Aziridino-2,2′:6′,2″-Terpyridine] | – | – | – | – | – | – | – | – | – | – | – | – | – | – | – | – | – | – | – | stability to base [1]: No change in the NMR spectrum
Cc1ccncc1.F[B-](F)(F)F.F[B-](F)(F)F.[Pt+2].c1ccc(-c2cccc(-c3ccccn3)n2)nc1 [A, 4-picoline-2,2′:6′:2″-terpyridine-platinum(II) tetrafluoroborate] | 20 | 14 | 100 | 100 | 100 | 100 | 100 | 100 | > 100 | 4.4 | 0.3 | 17 | 100 | 11 | 0.8 | – | – | – | – | % Inhibition, Trypanosoma brucei ([4]; 0.03 μM): 83.3%; growth delay (GD) ([5]; 30 mg/kg (lower dose) intraperitoneally, weekly for 4 weeks): 83.1; local peritoneal organ damage ([5]; 60 mg/kg (higher dose) i.p. weekly for 4 weeks): evidence, of local peritoneal organ damage; deaths due to drug toxicity ([5]; 30 and 60 mg/kg i.p. weekly for 4 weeks): no deaths due to drug toxicity; effect on tumour growth (Relative Tumour Volume) ([5]; 30 and 60 mg/kg i.p. weekly for 4 weeks, especially at the lower dose): induces a growth inhibitory effect; displacement of ethidium bromide bound to DNA [7]: displaces ethidium bromide bound to DNA; DNA unwinding / intercalation in ligation assay [8]: unwind and so intercalate into DNA; toxicity, single intraperitoneal injection ([9]; 50 mg/kg in water): no toxic affect; toxicity, single intraperitoneal injection ([9]; 100 mg/kg in water): toxic; LD50 ([9]; single intraperitoneal injection): approximately 70 mg/kg; equilibrium binding constant, second binding mode ([13]; site size of about 2 base pairs): about 1×10^6 M^−1; equilibrium binding constant, most stable binding mode ([13]; site size of about 4 base pairs): approximately 2×10^7 M^−1
[Cl-].[Cl-].[Pt+2].c1ccc(-c2cccc(-c3ccccn3)n2)nc1 [Compound A13, chloro(2,2′:6′,2″-terpyridine)platinum(II) chloride] | 19.5 | 6.6 | 26.2 | 100 | 100 | 100 | 100 | 100 | 41 | 3.75 | 0.6 | 49 | 99.3 | 6.4 | 1 | essentially the same binding constant | 52.0 | 76.0 | 99.0 | RF resistance factor: IC50 resistant line/IC50 parent line ([6]; A2780cis^R / A2780): 0.8
Cc1ccncc1.F[B-](F)(F)F.F[B-](F)(F)F.[Pt+2].c1ccc(-c2cc(N3CC3)cc(-c3ccccn3)n2)nc1 [T, (4-Picoline)(4′-Aziridino-2,2′:6′,2″-Terpyridine) Platinum (II) Tetra-fluoroborate] | 19 | 4.6 | 54.2 | 78.9 | 100 | 100 | 100 | 100 | 20 | 4.2 | – | 7.7 | 0 | 3.7 | – | – | 0 | 0 | 0 | stability in aqueous solution [16]: stable to nucleophilic attack by water under neutral conditions
hydroxyethanethiol-2,2′:6′,2″-terpyridine-platinum(II) [1,R═SCH2CH2OH, reference compound] | – | – | – | – | – | – | – | – | – | – | – | – | – | – | – | 83000 M⁻¹ | – | – | – | –
